Laboratory results taken from paper PMC8746798, “Evaluation of 2-Thioxoimadazolidin-4-one Derivatives as Potent Anti-Cancer Agents through Apoptosis Induction and Antioxidant Activation: In Vitro and In Vivo Approaches” (Molecules, 2021).

Columns and labels:
[1] = tested on: P53, PUMA, Caspase 3, 8, 9, Bcl-2, PI3K, AKT genes in HepG2 cells; assay: Gene expression (RT-PCR) of apoptosis-related genes; assay type: cell-based, human; conditions: HepG2, IC50 concentration, 48 h, control = 1
Description: The target genes of P53, PUMA, Caspases 3, 8, and 9, Bcl-2, PI3K, and AKT were chosen according to the interactive functional association network of the tested protein set using String bioinformatics database for analysis as shown in Supplementary Figure S1. HepG2 cells were treated for 48 h at 37 °C with the IC50 value of the compound 4 and followed by real-time PCR analysis for control and treated cells of the following genes, P53, PUMA, BCL2, CASP3, CASP8, CASP9, PI3k, and AKT, using the specific primers mentioned in Supplementary Table S3 compared to the control cells. Relative gene expression was calculated utilizing the ΔΔCT equation with normalization to the housekeeping beta-actin gene. Results were shown as a fold change in the mentioned gene expression in the treated versus control cells.
HepG2 cells were treated for 48 h at 37 °C with the IC50 value of the compound 4 and were collected for real-time PCR analysis with the perfect primer pairs (Supplementary, Table 1) of the following eight genes (P53, PUMA, BCL2, CASP3, CASP8, CASP9, PI3k and AKT) compared to the control cells, and for analysis first total RNA was extracted using RNeasy Mini Kit (Qiagen) following the manufacturer protocol of the kits than RNA was assessed for both the quality and quantity of RNA using NanoDrop ND-1000 spec-trophotometer at the absorbance ratio 260/280 nm [NanoDrop Tech., Inc. DE, USA]. Also, Whole RNA quality was examined by 1% agarose gel electrophoresis and afterward cDNA was obtained from one μg RNA using I-Script cDNA synthesis kit (BioRad). qRT-PCR were executed utilizing 10 ng of cDNA and Applied Biosystems Sybr Green master […]
conditions were 5 min [95 ◦C], followed by 45 cycles for 15 s [95 ◦C], for 60 s [58, 60, 62 ◦C] and for 1 min [72 ◦C] using applied Biosystems Step-One qRT-PCR (USA). Relative genes expression was finally calculated utilizing the ΔΔCT equation with normalization to that of the housekeeping beta-actin gene. Results were shown as fold change in gene expres-sion in the treated cells versus that of the control. […]

HepG2 cells = assay: Annexin V-FITC/PI apoptosis/necrosis flow cytometry; assay type: cell-based, human
Text: Apoptotic cells were quantified using double staining with annexin V and PI on flow cytometry. […] The detailed methodology of flow cytometric analysis (annexin V/PI differential apoptosis/necrosis, DNA content–flow cytometry aided cell cycle) is provided in the Supplementary Materials.
Supplementary materials for detailed methodology
Evaluation of 2-thioxoimadazolidin-4-one Derivatives as Potent
Anti-cancer Agents Through Apoptosis Induction and Antioxi-dant Activation: In vitro and In vivo Approaches
Mohamed S. Nafie 1,*, Ahmed I. Khodair 2,*, Hebat Allah Y. Hassan 3, Noha M. Abd El-Fadeal 4, Hanin A. Bogari 5 , Sameh S. Elhady 6 and Safwat A. Ahmed 3,7,* […]
Apoptosis and necrosis cell populations are determined using Annexin V-FITC apop-tosis detection kit (Abcam Inc., Cambridge Science Park, Cambridge, UK) coupled with 2 fluorescent channels flowcytometry. […]
Then, cells are incubated in dark with 0.5 ml of Annexin V-FITC/PI solution for 30 min in dark at room temperature according to manufacturer protocol. After staining, cells are injected via ACEA Novocyte™ flowcytometer (ACEA Biosciences Inc., San Diego, CA, USA) and analyzed for FITC and PI fluorescent signals using FL1 and FL2 signal detector, respectively (λex/em 488/530 nm for FITC and λex/em 535/617 nm for PI). […]

## O=C1NC(=S)N(c2ccc(O)cc2)/C1=C/c1cccs1 [Compound 4, (E)-1-(4-Hydroxyphenyl)-5-(thiophen-2-ylmethylene)-2-thioxoimidazolidin-4-one]
[1]; reduced
  AKT gene expression, fold change: 0.38 fold
  BCL-2 gene expression, fold change: 0.25 fold
  PI3K gene expression, fold change: 0.497 fold
[1]; upregulation
  Caspase 3 gene expression, fold change: 10.71 fold
  Caspase 8 gene expression, fold change: 1.98 fold
  Caspase 9 gene expression, fold change: 7.14 fold
  P53 gene expression, fold change: 7.61 fold
  PUMA gene expression, fold change: 2.31 fold
HepG2 cells; HepG2, IC50 = 0.017 μM, 48 h, control 1.05%
  necrotic cells (Q1, AV−/PI+): 6.08%
HepG2 cells; HepG2, 11.42% compared to 0.59% in control
  apoptosis induction versus control: 19.35 fold
